Reference: patent US11970439B1, “8-(4-chlorobenzylideneamino)naphthalene-1,3-disulfonic acid as an antioxidant compound” (KING FAISAL UNIVERSITY, priority 2023, dated 2024)

Assay: DPPH radical scavenging antioxidant test
Assay type: biochemical
Settings: 517 nm; for Inhibition (radical scavenging inhibition): compound 3 μM in ethanol, 0.2 mL DPPH (0.75 mM), 30 min incubation in the dark
Method: The antioxidant properties of the 8-(4-chlorobenzylideneamino)naphthalene-1,3-disulfonic acid were studied by adding 0.2 mL DPPH (0.75 mM)) to compound 8-(4-chlorobenzylideneamino)naphthalene-1,3-disulfonic acid (III) (3 μM) in ethanol. After 30 min of incubation in the dark, the absorbance was read against a blank at 517 nm. Ascorbic acid (vitamin C) was used as standard antioxidants (positive control). A blank sample was prepared by 0.2 ml of DPPH in 3 ml ethanol. A negative control sample was run using ethanol instead of the sample. The radical scavenging inhibition was calculated using the following equation: […]

Row | SMILES | Inhibition (radical scavenging inhibition) [%] | antioxidant potential in DPPH in vitro test (in words) (DPPH, vitamin C as positive control)
1 | O=C1O[C@H]([C@@H](O)CO)C(O)=C1O [vit c, Ascorbic acid, reference compound] | 74 | 
2 | O=S(=O)(O)c1cc(S(=O)(=O)O)c2c(/N=C/c3ccc(Cl)cc3)cccc2c1 [Product III, 8-(4-chlorobenzylideneamino)naphthalene-1,3-disulfonic acid] | 50 | high potential as an antioxidant compared to vitamin C
